According to patent US20260226027A1, “DEUTERATED COMPOUNDS” (Neurocrine Biosciences, Inc., priority 2023, published 2026):

Legend:
[1] = Control incubation without cells; type: in vitro ADME
Experimental: (§1) Metabolite profile and metabolite identification of Compound 1 were studied in cryopreserved SD-rat, beagle dog and human hepatocytes. The incubations were conducted using 10 μM initial concentrations of test substance and sampling at 0 min, 60 min, and 120 min. The samples were analysed using UPLC/Q-TOF-MS. Incubation material and procedures are provided Table 1. The samples were thawed at room temperature (RT), centrifuged (10 min at 13000×g (Heraeus Pico 17 centrifuge), and the supernatants were pipetted to glass vials to wait for analysis. Analysis was performed using liquid chromatography-mass spectrometry (LC-MS) according to the parameters described in Table 2. The samples were thawed at room temperature (RT), centrifuged (10 min at 13000×g (Heraeus Pico 17 centrifuge), and the supernatants were pipetted to glass vials to wait for analysis.

[2] = Metabolite identification in cross-subject human plasma pool; type: in vivo; conditions: day 7, 0-24 h pool, multiple daily oral 15 mg Compound 1, n=8
Experimental: The in vivo metabolism of Compound 1 was investigated in studies using rat, dog, rabbit, and human plasma and human urine samples from toxicology studies, an embryofetal development study, and a human clinical study.
Human plasma and urine samples originated from a human clinical study with subjects aged 65 years or older, dosed with 15 mg daily and achieving steady-state before day 7. Samples were stored at −75° C. or below from collection until analysis.
Human plasma samples from each Compound 1-dosed subject (15 mg; n=8) collected at day 7 at 0.25 h, 0.5 h, 1 h, 1.5 h, 2 h, 3 h, 4 h, 6 h, 8 h, 10 h, 12 h and 24 h after multiple daily oral administration were pooled for analysis. Plasma from placebo-dosed subjects (n=2) taken at the same time-points and pre-dose plasma collected on day 1 from Compound 1-dosed subjects were used as control for metabolite identification.
Time-normalized pooled plasma samples (day 7; 0-24 h) were prepared for each human subject treated with Compound 1 (15 mg; n=8) or with placebo (n=2) (see e.g., Hamilton et al, Clin. Pharmacol. Ther. 1983, 29(3):408-13). Composite time-normalized pooled plasma samples for human subjects dosed with Compound 1 or placebo were then prepared by combining an equal volume from the pooled sample prepared for each subject. A composite control plasma sample was prepared by combining an equal volume of pre-dose plasma from human subjects treated with Compound 1 (n=8).
Aliquots (100 μL) of the pooled plasma samples prepared for metabolite identification were treated with ice-cold acetonitrile (500 μL), mixed and centrifuged (2000 g; 4° C.; 10 min). […]
Samples were analysed by LC-MS, utilising a Vion Q-TOF mass spectrometer (Waters), Acquity I-class LC pumps, column heater, sample manager and photodiode array detector (Waters). […] Metabolite abundance was calculated as a percentage of total drug-related material in a given sample; the MS peak areas were collated and summed, and the abundance of each metabolite calculated as a percentage of the total in each sample. […]

beagle dog hepatocytes = experiment: Metabolite profile in cryopreserved beagle dog hepatocytes; type: in vitro ADME; conditions: 10 μM Compound 1, 120 min
Experimental: as §1

[3] = Metabolite identification in cross-subject human urine pool; type: in vivo; conditions: day 7, 0-24 h pool, multiple daily oral 15 mg Compound 1, n=8
Experimental: Human urine samples from the Compound 1-dosed subjects (15 mg; n=8) collected at day 7 between 0-4 h, 4 h-8 h, 8 h-12 h and 12 h-24 h after multiple daily oral administration were also pooled for analysis. Urine from placebo-dosed subjects (n=2) collected at day 7 over the same time periods was used as control for metabolite identification.
A composite urine sample (day 7; 0-24 h) was prepared for each human subject treated with Compound 1 (15 mg; n=8) or with placebo (n=2) by combining proportional amounts of the sample collected over each time period. Composite cross-subject urine samples for human subjects dosed with Compound 1 or placebo were then prepared by combining proportional amounts of pooled urine from each subject. All urine pools were mixed and centrifuged (2000 g; 4° C.; 10 min) prior to analysis.
Samples were analysed by LC-MS, utilising a Vion Q-TOF mass spectrometer (Waters), Acquity I-class LC pumps, column heater, sample manager and photodiode array detector (Waters). The mass spectrometer was set to operate in positive ion mode and a number of experiments were performed to enable the acquisition of full scan and product ion data. […] Metabolite abundance was calculated as a percentage of total drug-related material in a given sample; the MS peak areas were collated and summed, and the abundance of each metabolite calculated as a percentage of the total in each sample. Based on apparent abundance, metabolites were categorized as ‘major’ if present at 10% or more of the total drug-related material, ‘minor’ if between 1 and <10% and ‘trace’ if <1%.

[4] = system: SD-rat, beagle dog and human hepatocytes; experiment: Hepatocyte incubation, remaining abundance in all species; type: in vitro ADME; conditions: 10 μM
Experimental: as §1

human hepatocytes = experiment: Metabolite profile in cryopreserved human hepatocytes; type: in vitro ADME; conditions: 10 μM Compound 1, 120 min
Experimental: as §1

SD-rat hepatocytes = experiment: Metabolite profile in cryopreserved SD-rat hepatocytes; type: in vitro ADME; conditions: 10 μM Compound 1, 120 min
Experimental: as §1

| % Abundance in Sample, Plasma (% of total drug-related material) [2] | % Abundance in Sample, Urine (% of total drug-related material) [3] | Metabolite profile, Human 120 min, % (human hepatocytes) | Metabolite profile, Rat 120 min, % (SD-rat hepatocytes) | Structure (SMILES) | Metabolite profile, No cells 120 min, % ([1]; incubation without cells, 10 μM, 120 min) | disappearance in the control incubation without cells ([1]; without cells) | Metabolite profile, Dog 120 min, % (beagle dog hepatocytes) | remaining abundances after 120 min incubation period [4] |
| --- | --- | --- | --- | --- | --- | --- | --- | --- |
| 11.4% | 26.4% | 13.8% | 4.9% | Cn1nccc1C1CCN([C@H]2C[C@]3(CCNC3)C2)CC1 [Compound M4] | – | – | 4.6% | – |
| 2.3% | 3.3% | 0.3% | 0.1% | CCOC(=O)N1CC[C@]2(C1)C[C@@H](N1CCC(c3ccn[nH]3)CC1)C2 [Compound M2] | – | – | – | – |

| Structure (SMILES) | % Abundance in Sample, Plasma (% of total drug-related material) [2] | % Abundance in Sample, Urine (% of total drug-related material) [3] | Metabolite profile, Human 120 min, % (human hepatocytes) | Metabolite profile, Rat 120 min, % (SD-rat hepatocytes) | Metabolite profile, No cells 120 min, % ([1]; incubation without cells, 10 μM, 120 min) | disappearance in the control incubation without cells ([1]; without cells) | Metabolite profile, Dog 120 min, % (beagle dog hepatocytes) | remaining abundances after 120 min incubation period [4] |
| --- | --- | --- | --- | --- | --- | --- | --- | --- |
| CCOC(=O)N1CC[C@]2(C1)C[C@@H](N1CCC(c3ccnn3C)CC1)C2 [Compound 1, cis ethyl 2-[4-(1-methyl-1H-pyrazol-5-yl)piperidin-1-yl]-6-azaspiro[3.4]octane-6-carboxylate] | 82.0% | 63.3% | 84.0% | 93.7% | 100% | Practically no disappearance | 94.9% | 79-93% |
